Experiments:
[1] = GABA concentration series in reference savoury solution, tasted for umami enhancement (Example 4); conditions: 5000 ppm table salt, 15 ppm MSG, 75 ppm IMP/GMP
Description: A reference solution containing 5000 ppm table salt, 15 ppm MSG and 75 ppm IMP/GMP was prepared. To different parts of this solution 5, 10, 15, 20, and 25 ppm GABA was added. The solutions were tasted by a small group of experienced tasters (3 male, 1 female). […] 15 ppm of GABA was the flavoured sample in comparison to the target.

[2] = Taste comparison of model savoury base, GABA solution and base plus GABA (Example 2); conditions: 4 experienced tasters; base: 5000 ppm table salt, 150 ppm MSG, 75 ppm IMP/GMP; GABA 10 ppm
Description: A model savoury solution containing 5000 ppm table salt, 150 ppm MSG and 75 ppm IMP/GMP was used as a base.
Another solution was prepared containing 10 ppm GABA.
In a third solution, 10 ppm GABA was added to the base solution.
The solutions were compared by a small group of experienced tasters (3 male, 1 female).
The base solution was described as salty and umami. The GABA solution was tasteless. All members of the group preferred the third solution over the first one and judged to be noticeably different from the base.

SMILES: NCCCC(=O)O [GABA, γ-amino butyric acid]
- GABA concentration of the flavoured (favoured) sample in comparison to the target [1]: 15 ppm
- taste description [2]: tasteless

From US20120189758A1, “Flavour Enhancement” (priority 2009, published 2012)
